Reference: PubChem BioAssay AID1918944 (Molecular Pharmacology Branch, DTP, NCI, 2023)
“And” between values parts separate entries of the source, which are not always exact repeats. Identical values can stand only once.

Tested on: 786-0 complex spheroid viability
Assay: Anticancer human tumor 786-0 cell line growth inhibition;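 further: spheroids exposed to agents for seven days before readout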
Settings: for viability, T/C: stronger effect = lower value
Description: Multicellular complex tumor spheroid response to LSD1 Inhibitor Iadademstat in combination with a variety of drugs and investigational agents in selected tumor cell lines
The current study was undertaken to assess response to LSD1 inhibitors in combination with standard-of-care drugs and investigational agents in solid tumor complex spheroid models as well as in the K-562 leukemia. Complex spheroids include a stromal component modeled by human endothelial cells (HUVEC) and fibroblasts modeled by human mesenchymal stem cells (MSCs). The concentration ranges selected for each drug and investigational agent were based upon clinically achievable concentrations if the clinical Cmax of the agent was known.
Compounds. The drugs and investigational agents used in this study are listed on Table 1. All of the agents used, including staurosporine (NSC755774) and gemcitabine (NSC613327), were obtained from the Developmental Therapeutics Program, NCI. FDA-approved anticancer drugs are available from the NCI at http://dtp.nci.nih.gov/branches/dscb/oncology_drugset_explanation.html. Drugs and investigational agents were >95% pure by proton nuclear magnetic resonance (NMR) and liquid chromatography/mass spectrometry (LC/MS). Stock solutions were prepared at 400x in DMSO, stored at -70 degrees C, and diluted in fresh medium prior to their use. The final concentration of DMSO in cell culture wells never exceeded 0.25% (v/v). The FDA-approved anticancer drug set is available from the Developmental Therapeutics Program at https://dtp.cancer.gov/organization/dscb/obtaining/available_plates.htm. All drugs and investigational agents were tested over a range starting from a high concentration at or near the clinical Cmax and decreasing in half-log increments. If the clinical Cmax for an agent had not been determined, the highest concentration tested was 10 microM.
Cell Lines. The patient-derived cancer cell (PDC) lines: 292921-168-R-J2-PDC, K24384-001-R-PDC, and 521955-158-R2-J5-PDC pancreatic carcinomas, 556581-035-R-J1 ovarian carcinoma, 324938-238-R-J1-PDC, 855422-203-R-J1-PDC and 883617-216-R-J1-PDC urothelial bladder carcinomas, 743489-274-T-PDC renal cell carcinoma, 138582-R-J1 Merkel cell tumor, K60290-347-R-J1 and K57222-313-R-J1-PDC glioblastomas, 653999-131-R-J2-PDC, LG0703-F948-PDC, and 349418-098-R-PDC non-small cell lung carcinomas, 885512-296-R-J2-PDC, 171881-019-R-J1-PDC breast carcinomas and 186277-243-T-J2-PDC and 233499-124-R-J2-PDC colon carcinomas were obtained from the NCI Patient-Derived Models Repository (PDMR, https://pdmr.cancer.gov). The established cell lines NCI/ADR-RES (RRID:CVCL_14520 and OVCAR-5 (RRID:CVCL_1628) ovarian carcinomas, 786-O (RRID:CVCL_1051) and A498 (RRID:CVCL_A498) renal cell carcinoma, NCI-H211 (ATCC, cat. CRL-5824; RRID:CVCL_1529), NCI-H196 (ATCC, cat. CRL-5823, RRID:CVCL_1509), SW 1271 (ATCC, cat. CRL-2177, RRID:CVCL_1716) and NCI-H1876 (ATCC, cat. CRL-5902, RRID:CVCL_1503) small cell lung carcinomas, MDA-MB-231 (RRID:CVCL_0062) and MDA-MB-468 (RRID:CVCL_0419)breast carcinomas (10-12). Pooled donor human umbilical vein endothelial cells (HUVEC, Lonza, cat. CC-2519) and human mesenchymal stem cells (hMSC, Lonza, cat. PT-2501) were purchased from Lonza (Walkersville, MD).
Cell Culture. All cells were maintained in an incubator at 37 degrees C and 5% CO2 with 95% humidity. The PDC lines were cultured according to standard operating procedures established by the NCI PDMR (https://pdmr.cancer.gov). Briefly all PDCs were thawed and cultured in Matrigel-coated flasks prepared with a working solution of 1X Ham's F-12 nutrient mix, without supplementation (Invitrogen, Waltham, MA, cat. 11765054), 100 U/mL penicillin-streptomycin (Invitrogen, cat. 15140122), and 2.5% Matrigel (Corning Inc., Corning, NY, cat. 354248) for the first three passages. […]

[1] = curve of first compound, second compound 0.1 µM
[2] = curve of first compound, second compound 0.316 µM
[3] = curve of first compound, second compound 1 µM
[4] = curve of first compound, second compound 3.16 µM
[5] = curve of first compound, second compound 10 µM

O=C(C=Cc1cccc(S(=O)(=O)Nc2ccccc2)c1)NO + NC1CCC(NC2CC2c2ccccc2)CC1
IC50 [1]: 942 nM
IC50 [2]: 1020 nM
IC50 [3]: 912 nM
IC50 [4]: 653 nM
IC50 [5]: 446 nM
viability, T/C (second compound 0.1 µM, first compound 0.00949 µM): 112%
viability, T/C (second compound 0.1 µM, first compound 0.03 µM): 109%
viability, T/C (second compound 0.1 µM, first compound 0.0949 µM): 107%
viability, T/C (second compound 0.1 µM, first compound 0.3 µM): 99.6%
viability, T/C (second compound 0.1 µM, first compound 0.949 µM): 49.6%
viability, T/C (second compound 0.1 µM, first compound 3 µM): 6.03%
viability, T/C (second compound 0.316 µM, first compound 0.00949 µM): 113%
viability, T/C (second compound 0.316 µM, first compound 0.03 µM): 111%
viability, T/C (second compound 0.316 µM, first compound 0.0949 µM): 112%
viability, T/C (second compound 0.316 µM, first compound 0.3 µM): 104%
viability, T/C (second compound 0.316 µM, first compound 0.949 µM): 53.2%
viability, T/C (second compound 0.316 µM, first compound 3 µM): 5.39%
viability, T/C (second compound 1 µM, first compound 0.00949 µM): 107%
viability, T/C (second compound 1 µM, first compound 0.03 µM): 107%
viability, T/C (second compound 1 µM, first compound 0.0949 µM): 110%
viability, T/C (second compound 1 µM, first compound 0.3 µM): 92.8%
viability, T/C (second compound 1 µM, first compound 0.949 µM): 48.7%
viability, T/C (second compound 1 µM, first compound 3 µM): 5.27%
viability, T/C (second compound 3.16 µM, first compound 0.00949 µM): 96%
viability, T/C (second compound 3.16 µM, first compound 0.03 µM): 101%
viability, T/C (second compound 3.16 µM, first compound 0.0949 µM): 93.8%
viability, T/C (second compound 3.16 µM, first compound 0.3 µM): 81.9%
viability, T/C (second compound 3.16 µM, first compound 0.949 µM): 34.8%
viability, T/C (second compound 3.16 µM, first compound 3 µM): 6.76%
viability, T/C (second compound 10 µM, first compound 0.00949 µM): 80.5%
viability, T/C (second compound 10 µM, first compound 0.03 µM): 77%
viability, T/C (second compound 10 µM, first compound 0.0949 µM): 76.4%
viability, T/C (second compound 10 µM, first compound 0.3 µM): 60.7%
viability, T/C (second compound 10 µM, first compound 0.949 µM): 29.1%
viability, T/C (second compound 10 µM, first compound 3 µM): 2.25%

CC1COCCN1c1cc(-c2ccnn2C)c2ccnc(-c3ccn[nH]3)c2n1 (configuration not stated)
viability, T/C (compound 0.00316 µM): 101% and 93.8%
viability, T/C (compound 0.01 µM): 95.2% and 97.4%
viability, T/C (compound 0.0316 µM): 56.1% and 64.5%
viability, T/C (compound 0.1 µM): 23.4% and 27.1%
viability, T/C (compound 0.316 µM): 11.3% and 22.2%
viability, T/C (compound 1 µM): 12.7% and 18%
IC50 (curve of compound): 40 nM and 49.3 nM

CC(C)CC(NC(=O)CNC(=O)c1cc(Cl)ccc1Cl)B1OC(=O)CC(CC(=O)O)(C(=O)O)O1 (configuration not stated) + NC1CC1c1ccc(-c2cccc(O)c2)cc1
IC50 [1]: 14.1 nM
IC50 [2]: 14.8 nM
IC50 [3]: 14.7 nM
IC50 [4]: 13.3 nM
IC50 [5]: 9.46 nM
viability, T/C (second compound 0.1 µM, first compound 0.000316 µM): 95.1%
viability, T/C (second compound 0.1 µM, first compound 0.001 µM): 106%
viability, T/C (second compound 0.1 µM, first compound 0.00316 µM): 93.2%
viability, T/C (second compound 0.1 µM, first compound 0.01 µM): 55.9%
viability, T/C (second compound 0.1 µM, first compound 0.0316 µM): 33.5%
viability, T/C (second compound 0.1 µM, first compound 0.1 µM): 16.6%
viability, T/C (second compound 0.316 µM, first compound 0.000316 µM): 111%
viability, T/C (second compound 0.316 µM, first compound 0.001 µM): 106%
viability, T/C (second compound 0.316 µM, first compound 0.00316 µM): 97.7%
viability, T/C (second compound 0.316 µM, first compound 0.01 µM): 59.3%
viability, T/C (second compound 0.316 µM, first compound 0.0316 µM): 30.5%
viability, T/C (second compound 0.316 µM, first compound 0.1 µM): 17.1%
viability, T/C (second compound 1 µM, first compound 0.000316 µM): 101%
viability, T/C (second compound 1 µM, first compound 0.001 µM): 102%
viability, T/C (second compound 1 µM, first compound 0.00316 µM): 90.5%
viability, T/C (second compound 1 µM, first compound 0.01 µM): 57.6%
viability, T/C (second compound 1 µM, first compound 0.0316 µM): 33.2%
viability, T/C (second compound 1 µM, first compound 0.1 µM): 17.4%
viability, T/C (second compound 3.16 µM, first compound 0.000316 µM): 88.6%
viability, T/C (second compound 3.16 µM, first compound 0.001 µM): 100%
viability, T/C (second compound 3.16 µM, first compound 0.00316 µM): 88.1%
viability, T/C (second compound 3.16 µM, first compound 0.01 µM): 54.6%
viability, T/C (second compound 3.16 µM, first compound 0.0316 µM): 31.4%
viability, T/C (second compound 3.16 µM, first compound 0.1 µM): 15.6%
viability, T/C (second compound 10 µM, first compound 0.000316 µM): 88%
viability, T/C (second compound 10 µM, first compound 0.001 µM): 89.5%
viability, T/C (second compound 10 µM, first compound 0.00316 µM): 84%
viability, T/C (second compound 10 µM, first compound 0.01 µM): 45.4%
viability, T/C (second compound 10 µM, first compound 0.0316 µM): 27.4%
viability, T/C (second compound 10 µM, first compound 0.1 µM): 12.4%
